Results as given in patent publication US20010041670A1, “Thrombospondin-binding region of histidine-rich glycoprotein and method of use” (priority 1999, published 2001).
Values belong to the substance of their own block, whether it stands above or below them.

Tests used:
binding of HRGP to TSP-1 = biological target: T1, binding of HRGP to TSP-1 (Homo sapiens, UniProt P04196); assay: ELISA of HRGP binding to immobilized TSP-1 in presence of peptides; settings: for inhibition of binding of HRGP to immobilized TSP-1: peptide 50 μM
T1 construct: from tissue; host or cells: HRGP from human plasma; TSP-1 from human platelet releasate
T1 sequence (P04196 19-525): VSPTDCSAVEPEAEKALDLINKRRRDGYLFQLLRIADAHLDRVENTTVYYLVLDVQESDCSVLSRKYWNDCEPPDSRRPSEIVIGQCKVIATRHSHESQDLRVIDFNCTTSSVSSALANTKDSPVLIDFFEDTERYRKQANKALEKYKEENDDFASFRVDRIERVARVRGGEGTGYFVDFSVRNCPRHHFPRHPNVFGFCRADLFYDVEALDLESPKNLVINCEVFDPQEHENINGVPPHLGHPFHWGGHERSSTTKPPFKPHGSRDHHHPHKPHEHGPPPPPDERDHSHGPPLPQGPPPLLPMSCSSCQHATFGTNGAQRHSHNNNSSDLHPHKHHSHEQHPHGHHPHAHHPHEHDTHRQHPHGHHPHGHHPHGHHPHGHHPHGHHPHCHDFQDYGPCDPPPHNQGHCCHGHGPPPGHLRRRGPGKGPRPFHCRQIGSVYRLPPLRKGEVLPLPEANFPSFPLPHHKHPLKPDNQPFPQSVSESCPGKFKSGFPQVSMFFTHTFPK
Protocol: (§1) Enzyme-linked immunosorbent assays (ELISA) were performed as described (6). Briefly, TSP-1 (4μg/ml) in coating buffer (0.5M sodium carbonate, pH 9.6) was applied to microtiter plates (Becton Dickinson, Lincoln Park, N.J., USA) for 3 hours at 37° C. After washing with wash buffer (0.05% Tween in 20 mM Tris, 150mM NaCl, pH 7.5), and blocking for 1 hour at 37° C. with 1% BSA in Tris-Tween, HRGP in varying amounts in the presence and absence of peptide was added for 18h at 4° C. After washing, alkaline phosphatase-conjugated anti-HRGP or nonimmune rabbit Fab'2 was added for 3h at 37° C., after which p-nitrophenyl phosphate substrate was added and optical density (OD) at 405 nm was read in a microplate reader (Molecular Devices, Menlo Park, Calif., USA).
(§2) HRGP or plasminogen binding to TSP-1 immobilized on plastic wells was measured by enzyme-linked immunosorbent assay (ELISA) as described above, using an alkaline phosphatase-conjugated anti-HRGP antibody and p-nitrophenyl phosphate substrate.
(§3) As an additional control, the binding of plasminogen to TSP-1 was measured.
Varying amounts of HRGP were added alone or in the presence of increasing concentrations of the peptide CSVTCG to TSP-1 coated wells. Binding was measured by ELISA as described above.

[1] = biological target: T2, 125I-TSP-1 binding to HRGP (Homo sapiens, UniProt P07996); assay: Solid phase binding assay, competition with CD36 fusion proteins; settings: increasing concentrations of fusion protein
T2 construct: TSP-1 was purified from human platelet releasate; from tissue; host or cells: TSP-1 from human platelet releasate; HRGP from human plasma
Protocol: Solid phase binding assays were performed as described (18). Briefly, HRGP in carbonate buffer was immobilized on 96-well strips (Immulon-4 Remove-a-well, Dynatech Laboratories Inc., Burlington, Mass., USA) overnight at 4° C. After blocking with 1% BSA, ^125I-TSP-1 was incubated in the presence of varying concentrations of CD36-FP in triplicate, and bound radioactivity was quantified on a gamma counter. Non-specific binding was determined by carrying out binding in the presence of excess unlabeled ligand.
TSP-1 binding to HRGP: competition with CD36.

[2] = biological target: binding of plasminogen to TSP-1 (Homo sapiens, UniProt P00747); settings: ELISA; control interaction
Protocol: as §1, §2, §3

[3] = biological target: T3, binding of radiolabelled HRGP to TSP-1 (Homo sapiens, UniProt P04196); assay: Ligand blot of radiolabelled HRGP on TSP-1; settings: autoradiography; CSVTCG peptide at 50 μM
T3 construct: TSP-1 was purified from human platelet releasate; from tissue; host or cells: HRGP from human plasma; TSP-1 from human platelet releasate
T3 sequence (P04196 19-525): T1 sequence (P04196 19-525)
Protocol: Ligand Blot: TSP-1 was resolved on an SDS-polyacrylamide gel and electrophoretically blotted onto a polyvinylidene difluoride (PVDF) membrane. The membrane was blocked with 150 mM NaCl, 20 mM Tris (TBS) containing 5% BSA. Following three washes with TBS, washes the membranes were cut into strips and incubated with ligand(s) diluted in TBS, 0.1% BSA for 1 hour, washed, and developed by autoradiography.
Ligand blots show binding of radiolabelled HRGP to TSP-1 that had been subjected to SDS-PAGE and transferred to nitrocellulose, then developed by autoradiography.

[4] = test system: Human dermal microvascular EC (HMVEC); assay: Tube formation assay on Matrigel; format: cell-based; settings: Matrigel
Protocol: Tube Formation Assay. Early passage (P2 or P3) HMVEC in 0.2% MVGS were grown on 150 μl of Matrigel (Becton Dickinson, Bedford, Mass., USA) at 3×10^4 cells per well of 48-well plates. Reagents were added and cells were incubated at 5% CO2, 37° C. for 24 hours then photographed. Images were scanned and number of branched structures was counted using Scion Image software (Frederick, Md., USA).
HRGP inhibits the anti-angiogenic effect of TSP-1 in vitro. Microvascular EC were grown on Matrigel under low serum concentrations (0.2%) in the presence of bFGF (2 ng/ml), conditions which are known to induce tube formation. […] The anti-angiogenic activity of TSP-1 was abolished by the addition of HRGP (15 nM), which restored the ability of the EC to form tubular structures. (c).

[5] = test system: Human dermal microvascular EC (HMVEC); assay: Endothelial cell chemotaxis assay (modified Boyden chamber); format: cell-based; settings: TSP-1 2 nM; 3 separate experiments
Protocol: Endothelial Cell (EC) chemotaxis assays were performed as described using a modified Boyden chamber with 8 μm gelatin-coated membranes (22). Briefly, confluent flasks of HMVEC were grown in 0.1% MVGS overnight and plated at 3×10^4 cells per well on a gelatinized porous membrane (Osmonics, Minnetonka, Minn., USA). Reagents were added to wells and cells were allowed to migrate at 5% CO2, 37° C. for 4 hours. Membranes were stained and the number of cells migrating was counted. Results were expressed as the percentage of maximum cells migrating towards bFGF (38-113 cells/10 high power fields) minus the number of cells migrating in the absence of bFGF (4-13cells/10 hpf).
HRGP inhibits the anti-chemotactic effect of TSP-1. Because the type I repeat also mediates the interaction of TSP-1 with HRGP, we studied the effect of HRGP on angiogenesis. EC migration towards bFGF was measured using a modified Boyden chamber with an 8 μm gelatin-coated membrane in the presence and absence of TSP-1 (2 nM) and increasing concentrations of HRGP (0-100 nM). Data from 3 separate experiments are expressed as a percentage of migration in the presence of bFGF alone. We measured migration of CD36-expressing microvascular EC towards bFGF. The addition of TSP-1 inhibited bFGF-induced migration of EC (approx. 30%±3% of control 100% value without added TSP-1). […]

C57B1/6 mice = assay: In vivo subcutaneous Matrigel plug assay
Protocol: In vivo subcutaneous Matrigel plug assays were performed as described (23). Briefly, 500 μl of Matrigel mixed with proteins or growth factors was injected subcutaneously near the abdominal midline of C57B1/6 mice. Gels were removed after 10 days, fixed in 1% paraformaldehyde, embedded in paraffin, sectioned, and stained with hematoxylin and eosin. Immunohistochemistry was performed on unstained sections using an anti-human von Willebrand factor (vWF) IgG (Dako, Glostrup, Denmark) or isotype-matched control (Sigma) and a biotin-streptavidin-peroxidase antibody and development system (Vector Laboratories, Burlingame, Calif.) as described (24) and counterstained with Mayer's hematoxylin (ImmunoGenex, San Ramon, Calif., USA). After scanning, the degree of angiogenesis was determined by counts of vWF-positive blood vessels using Scion Image. For breast tissue, frozen sections of freshly obtained human breast carcinoma were incubated with rabbit antibody to HRGP or CSVTCG or murine monoclonal antibody to TSP, or isotype-matched controls (Sigma), and developed as above. These studies were approved by the Institutional Animal Use Committee.
Matrigel mixed was injected subcutaneously into the midline of mice and resulting plugs were harvested after 10 days, fixed, and paraffin embedded, sectioned, stained with. hematoxylin and eosin, and photographed at 200× magnification. […]

CD36 null mice = assay: In vivo corneal angiogenesis assay, CD36 null mice
Protocol: (§4) FIG. 3. HRGP abrogates the effect of endogenous TSP in the corneal angiogenesis assay. Pellets containing bFGF at various doses with and without HRGP (50 ng) were implanted into the corneas of wild type C57BL/6 (closed symbols) or CD 36 null mice (open symbols), and area of neovascularization was measured after five days. HRGP (--●--) augmented the dose-dependent effect of bFGF (—▪—) in the wild type mice (p=0.0004 by ANOVA). In CD36 null mice, there was an enhanced dose response to bFGF (—□—) (p=0.01), but no effect seen with the addition of HRGP (--◯--). Results represent mean±SE of>6 replicates.
(§5) In vivo corneal angiogenesis assays. Pellets composed of hydron (Hydro Med Sciences, Cranbury, N.J.) and sucralfate (Teva Pharmaceuticals, North Wales, Pa.) were mixed with proteins or growth factors, and were prepared and implanted into the comeas of C57B1/6 mice as described (38). After 5 days, eyes were viewed under a dissecting microscope and photographed with a Sony DKC-1000 digital camera. The area of neovascularization was calculated by measuring vessel length from limbus towards the pellet and number of clock hours of vascularization as described (39, 40). Studies were approved by the Institutional Animal Use Committee.
In fact, the dose response curve of bFGF in wild type mice in the presence of HRGP was similar to that seen with bFGF alone in the CD36 null mice. […]

wild type C57BL/6 mice = assay: In vivo corneal angiogenesis assay, wild type mice
Protocol: as §4, §5
In a second type of in vivo experiment, hydron/sucralfate pellets containing bFGF, TSP-1, and/or HRGP were implanted in the corneas of C57B1/6 mice. […]

T2 sequence (P07996 19-1170): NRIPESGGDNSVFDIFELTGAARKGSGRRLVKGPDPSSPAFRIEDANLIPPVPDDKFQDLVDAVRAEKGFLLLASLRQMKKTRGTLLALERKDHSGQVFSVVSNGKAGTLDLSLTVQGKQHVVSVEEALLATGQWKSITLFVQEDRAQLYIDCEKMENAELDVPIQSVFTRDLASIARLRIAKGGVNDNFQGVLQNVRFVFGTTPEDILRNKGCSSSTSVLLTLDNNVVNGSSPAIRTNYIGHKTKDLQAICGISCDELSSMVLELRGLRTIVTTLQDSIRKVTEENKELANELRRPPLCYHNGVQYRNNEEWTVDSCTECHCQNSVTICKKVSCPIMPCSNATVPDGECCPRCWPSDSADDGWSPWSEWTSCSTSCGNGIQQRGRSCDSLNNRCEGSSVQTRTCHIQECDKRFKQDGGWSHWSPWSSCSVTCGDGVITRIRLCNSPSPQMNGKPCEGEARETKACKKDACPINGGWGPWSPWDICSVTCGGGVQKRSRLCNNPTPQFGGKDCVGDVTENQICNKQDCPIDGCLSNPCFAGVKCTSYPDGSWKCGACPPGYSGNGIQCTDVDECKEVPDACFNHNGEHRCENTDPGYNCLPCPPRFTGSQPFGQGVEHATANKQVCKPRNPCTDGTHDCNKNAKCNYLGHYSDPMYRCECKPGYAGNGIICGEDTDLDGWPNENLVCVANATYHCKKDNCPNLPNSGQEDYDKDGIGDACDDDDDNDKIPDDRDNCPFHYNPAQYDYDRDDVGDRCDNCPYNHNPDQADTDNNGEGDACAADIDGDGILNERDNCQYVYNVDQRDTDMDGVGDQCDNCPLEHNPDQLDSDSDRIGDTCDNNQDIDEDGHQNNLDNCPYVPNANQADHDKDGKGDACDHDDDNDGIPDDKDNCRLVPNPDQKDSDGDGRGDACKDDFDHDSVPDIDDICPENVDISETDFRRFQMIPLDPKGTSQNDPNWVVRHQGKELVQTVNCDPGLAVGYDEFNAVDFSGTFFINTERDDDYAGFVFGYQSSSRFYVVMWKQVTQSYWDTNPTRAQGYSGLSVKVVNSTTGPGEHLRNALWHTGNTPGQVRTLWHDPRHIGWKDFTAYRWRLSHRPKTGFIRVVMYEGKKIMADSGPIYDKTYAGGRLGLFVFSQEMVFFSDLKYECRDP
binding of plasminogen to TSP-1, sequence (P00747 20-810 limits assumed): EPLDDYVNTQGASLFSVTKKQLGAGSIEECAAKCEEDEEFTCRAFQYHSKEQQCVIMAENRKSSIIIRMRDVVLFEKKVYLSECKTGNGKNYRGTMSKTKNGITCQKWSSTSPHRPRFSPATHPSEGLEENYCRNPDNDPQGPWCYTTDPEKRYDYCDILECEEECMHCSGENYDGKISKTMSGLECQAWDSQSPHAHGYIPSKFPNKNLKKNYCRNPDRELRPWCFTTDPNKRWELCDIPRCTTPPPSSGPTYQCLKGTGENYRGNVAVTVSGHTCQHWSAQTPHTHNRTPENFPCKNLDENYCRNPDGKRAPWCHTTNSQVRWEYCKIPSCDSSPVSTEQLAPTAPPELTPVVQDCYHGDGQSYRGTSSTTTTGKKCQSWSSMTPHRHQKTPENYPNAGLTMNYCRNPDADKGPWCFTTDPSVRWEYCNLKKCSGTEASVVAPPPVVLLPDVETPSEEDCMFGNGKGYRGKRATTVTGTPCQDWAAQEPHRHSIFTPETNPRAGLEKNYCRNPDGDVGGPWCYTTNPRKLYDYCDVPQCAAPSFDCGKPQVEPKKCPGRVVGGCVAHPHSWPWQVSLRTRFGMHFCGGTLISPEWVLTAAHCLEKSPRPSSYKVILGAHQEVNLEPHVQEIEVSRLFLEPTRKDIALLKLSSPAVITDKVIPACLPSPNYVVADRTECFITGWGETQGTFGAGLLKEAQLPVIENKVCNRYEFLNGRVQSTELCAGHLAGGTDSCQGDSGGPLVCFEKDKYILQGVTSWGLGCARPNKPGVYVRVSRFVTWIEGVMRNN

inhibition of binding of HRGP to immobilized TSP-1 (binding of HRGP to TSP-1): not and had no effect
Substance: TVSGCC: scrambled peptide control

inhibition of binding of HRGP to immobilized TSP-1 (binding of HRGP to TSP-1): not and had no effect
Substance: RGDS: control TSP-1 peptide

inhibition of 125I-TSP-1 binding to immobilized HRGP [1]: inhibited
Substance: CD36 FP93-120: CD36-glutathione-S-transferase (GST) fusion protein shown to bind TSP-1 (YRVRFLAKENVTQDAEDNTVSFLQPNGA; left off: a dimerising Fc or GST)

inhibition of 125I-TSP-1 binding to immobilized HRGP [1]: had no effect
Substance: GST: glutathione-S-transferase alone, control

The remaining lines, values behind:

Substance: cysteine-serine-valine-threonine-cysteine-glycine [CSVTCG]
peptide concentration at which inhibition of HRGP binding to TSP-1 reached maximum (binding of HRGP to TSP-1; concentration-dependent inhibition): 50 µM
inhibition of binding of HRGP to immobilized TSP-1 (binding of HRGP to TSP-1): inhibited
inhibition of binding of plasminogen to TSP-1 [2]: not inhibited
binding of radiolabelled HRGP to TSP-1 resolved on SDS-PAGE and blotted [3]: completely abolished

Substance: TSP-1: 450 kDa homotrimeric adhesive glycoprotein purified from human platelet releasate; inhibitor of angiogenesis
effect on bFGF-induced tube formation by EC ([4]; TSP-1 2 nM, bFGF 2 ng/ml, 0.2% serum): inhibited
EC migration towards bFGF, percentage of control without added TSP-1 [5]: approx. 30%±3%
blood vessels/mm^2, % of that seen with bFGF (C57B1/6 mice; TSP-1 added to bFGF in Matrigel, 10 days): 14±8%
inhibition of bFGF-induced angiogenesis (CD36 null mice; CD36 null mice): did not inhibit

Substance: bFGF: Recombinant human basic fibroblast growth factor
induction of tube formation ([4]; agent alone, low serum): induced tube formation
angiogenesis in Matrigel plug (histology) (C57B1/6 mice; plugs harvested after 10 days, representative images of 4 experiments): stimulated angiogenesis
Area of Neovascularization (mm^2) ± SE (wild type C57BL/6 mice; Wild type mouse, corneal pellet, 5 days): 2.35 ± 0.10 mm^2
eyes with vigorous outgrowth of blood vessels (angiogenesis) (wild type C57BL/6 mice; pellets: bFGF 50 ng, TSP-1 200 ng, HRGP 100 ng, after 5 days): 13/13
Area of Neovascularization (mm^2) ± SE (CD36 null mice; CD36 −/− mouse, corneal pellet, 5 days): 2.10 ± 0.14 mm^2
